# Key:
# [1] = test system: ischemic preconditioning (IPC) cardioprotection; conditions: cited from earlier work; for Effect on cardioprotection by preconditioning (in words): ref [21]; for Inhibition of the triggering step of IPC (in words): ref [21],[40],[41],[42],[43]
# Description: IPC is a powerful and robust cardioprotective mechanism. In the current study, we wanted to examine if IPC in combination with Gap peptides would interfere with infarct size limitation. […] Peptides were added prior to and during three cycles of ischemic preconditioning pretreatment before prolonged global ischemia but not at the following reperfusion. When combining Gap26 and ischemic preconditioning, the protection agains ... || Through the years, multiple attempts have been made to use cardioprotection by IPC or pharmacological interventions that mimic IPC to reduce infarct size in the clinic. So far, this has been without success when carried through to large phase 3 clinical studies. Adaption to stress is a beneficial endogenous mechanism closely related to injury mechanisms.
# [2] = test system: subsarcolemmal mitochondria isolated from perfused rat hearts; assay: High-resolution respirometry of isolated subsarcolemmal mitochondria; type: biochemical, male Wistar rat; conditions: pH 7.4, 37 °C; for Oxygen flux, +Oligomycin: oligomycin 4 µg/mL; for Oxygen flux, +Oligomycin / Oxygen flux, +ADP 50 µM / Oxygen flux, Glutamate + Maleate / Oxygen flux, OXPHOS Saturating +ADP 2.5 mM / Oxygen flux, State 4 (LEAK ATP): mean ± SEM, n = 3; for Oxygen flux, +ADP 50 µM / Oxygen flux, Glutamate + Maleate / Oxygen flux, OXPHOS Saturating +ADP 2.5 mM / Oxygen flux, State 4 (LEAK ATP): 10 min preincubation on ice
# Description: (§1) All experiments were approved by the Norwegian animal research authority and were performed according to the Norwegian Animal Welfare Act and the European Convention for the Protection of Vertebrate Animals Used for Experimental and other Scientific Purposes (ETS No. 123 and 2010/63/EU). Male Wistar rats 250–350 g (Charles River, UK) were anesthetized with pentobarbital (100 mg/kg i.p.) and heparinized (300 IU i.p.), the chest opened and the heart removed.
# Hearts were control perfused or subjected to IPC. Isolation of mitochondria was performed using the procedure described by Palmer et al. (1977) with minor modifications. All procedures were performed on ice or at 4 °C. Briefly, the ventricles were removed, weighed and placed in the buffer containing (in mM): 100 KCl, 50 MOPS, 1 EGTA, 5 MgSO4, 1 ATP and pH 7.4. Heart tissue was minced with scissors in a small volume of buffer. Buffer plus bovine serum albumin BSA (2 mg/mL) were added, and the tissue suspension was homogenized with Polytron for 7 s and thereafter with two strokes of a Potter-Elvehjem homogenizer (Glas-Col, Terre Haute, IN, USA) and centrifuged at 590× g for 10 min at 4 °C. The supernatant was filtered through a nylon net (NITEX 300 lm; Yulee, FL, USA). Supernatants now containing mitochondria mainly from the subsarcolemmal compartment (SSM fraction) were centrifuged at 3000× g for 10 min at 4 °C, and the SSM pellet was again resuspended in the buffer plus BSA and centrifuged at 3000× g for 10 min. The pellet was resuspended in the buffer containing (in mM): 100 KCl, 50 MOPS 50, 0.5 EGTA and pH 7.4 and centrifuged at 3000× g for 10 min at 4 °C. The final pellet was resuspended in this buffer and left on ice for 30 min for stabilization of membranes.
# Measurement of mitochondrial oxygen consumption was performed in an oxygraph (Oxygraph 2k; Oroboros Instruments, Innsbruck, Austria) using a respiration medium [100 KCl; 50 MOPS; 1 EGTA; 5 KH2PO4 (all in mM); BSA 1 mg mL) and pH = 7.4] in a closed 2 mL chamber at 37 °C. Glutamate (5.0 mM) and malate (2.5 mM) were used as substrates. After obtaining stable respiration O2 flux (nmol O2/min/mL), ADP was added to a final concentration of 50 µM to measure coupled respiration. After depletion of ADP and stable respiration, a saturating ADP amount (2.5 mM) was added to obtain max coupled respiration (OxPhos). Finally, oligomycin was added to a final concentration of 4 µg/mL to inhibit the ATP-synthase, and a stable state oligomycin measurement was recorded. At the end of the experiments, protein content was estimated by the Bradford method, and citrate synthase activity was measured. Results of O2 flux measurements (nmol O2/min) were normalized to citrate synthase activity (IU µmol/min) in the sample. Phosphate/oxygen ratio (P/O ratio) was calculated as ADP phosphorylated divided by oxygen molecules consumed. The respiratory control ratio (RCR) was calculated as the ratio between max state 3 (OxPhos) and […].
# In order to assess the effect of Gap26 and Gap27 on mitochondrial respiration, peptides in concentrations 0.5, 5.0 and 50.0 µM were added to the isolated mitochondria. After 10 min preincubation on ice 60 µL of the suspension was added to the oxygraphy, and peptide concentration was adjusted to the new volume, so the final peptide concentration was the same during the whole experiment. Each subgroup consisted of samples from 3–4 hearts, and care was taken to minimize variability by testing the different Gap peptides and concentrations concomitantly in every heart at the same time using multiple respiratory chambers.
# Statistical analysis was performed by SigmaPlot version 14.5 (Systate Software Inc. Chicago, IL, USA) using one-way or two-way ANOVA followed by the Holms Sidac method as a post hoc test when appropriate. Results are presented as mean ± SEM except for binding kinetics, which is presented as mean ± SD (n = 3–4).
# [3] = test system: isolated perfused male rat hearts; assay: Left ventricular function (LVDP, EDP) after ischemia-reperfusion, Langendorff-perfused heart; set-up: species or system male Wistar rat; conditions: % recovery of initial preischemic LVDP after 30 min ischemia and 120 min reperfusion; peptide during IPC
# Description: as §1
# (§2) The heart was immediately submerged in an ice-cold buffer and quickly mounted on the perfusion apparatus, where it was perfused with the Krebs–Henseleit buffer (gassed with 5% CO2 and 95%O2) in a constant pressure Langendorff setup (100 cm H2O). The temperature was kept at 37 °C during the whole experiment by keeping the heart submerged in a heated buffer. Left ventricular pressure was recorded using a balloon catheter connected to a pressure transducer. Coronary flow was measured by timed collections of perfusate.
# (§3) Hearts were stabilized for 15 min, then either subjected to 30 min of global ischemia and 2 h of reperfusion or preconditioning with 3 cycles of 5 min of ischemia and reperfusion (IPC) before 30 min of global ischemia and 2 h of reperfusion. Care was taken to secure controls corresponding in time and rat batch with the intervention experiments. […]
# [4] = test system: isolated perfused male rat hearts (connexin43 hemichannels); assay: Infarct size (TTC staining) after global ischemia-reperfusion, Langendorff-perfused heart; set-up: species or system male Wistar rat
# Description: as §1, §2
# Hearts were stabilized for 15 min, then either subjected to 30 min of global ischemia and 2 h of reperfusion or preconditioning with 3 cycles of 5 min of ischemia and reperfusion (IPC) before 30 min of global ischemia and 2 h of reperfusion. Care was taken to secure controls corresponding in time and rat batch with the intervention experiments.
# Connexin mimetic peptides Gap19 (amino acid sequence KQIEKKFK), Gap26 (VCYDKSFPISHVR) and Gap27 (SRPTEKTIFII) from Pepnome Inc., Hong Kong, China, were dissolved in the Krebs–Henseleit buffer to a final concentration of 0.5 µM [7, 12] and used in experiments the same day. Amino-acid sequences were confirmed by mass spectrometry analysis. The hearts that were subject to ischemia without IPC received the peptides prior to and after 30 min global ischemia. The hearts that were subject to IPC received the peptides during the preconditioning cycles only prior to 30 min ischemia.
# At the end of reperfusion, the heart was immediately cut off caudal to the atria yielding only ventricular tissue. The ventricular tissue was then weighed in its wet state and immediately frozen to −18 °C for 24 h, sliced into four or five 2 mm thick slices and dyed with 1% 2, 3, 5 triphenyl tetrazolium chloride (TTC) (Sigma-Aldrich Co., Ltd., St. Louis, MI, USA) in Dulbecco’s phosphate buffered saline (PBS) (Sigma-Aldrich Co.). Each heart was submerged in 50mL of 1% TTC in PBS for 20 min at 37 °C in a light-free environment. Thereafter the slices were quickly dried and fixed in 4% formaldehyde for 30 min before they were scanned by a high-resolution scanner; the images were then blind-coded. Infarcts were manually traced, and the area of infarct relative to the whole area was quantified using Image J software. […]
# [5] = test system: isolated perfused male rat hearts; assay: Coronary flow in isolated perfused heart; set-up: species or system male Wistar rat; conditions: before 30 min ischemia; Gap peptide in buffer
# Description: as §1, §2, §3
# [6] = control hearts (crt), peptide 0.5 µM
# [7] = control hearts (crt), peptide 5 µM
# [8] = control hearts (crt), peptide 50 µM
compound,measurement,setting,value
CCCN(CCC)S(=O)(=O)c1ccc(C(=O)O)cc1 [probenecid],Effect on cardioprotection by preconditioning (in words),[1],could inhibit this effect
"CC(=O)Oc1ccccc1C(=O)O [acetylsalicylic acid (aspirin), acetylsalicylic acid]",Inhibition of the triggering step of IPC (in words),[1],inhibit the triggering step of IPC
O=c1[nH]c(=O)c2[nH]c(=O)[nH]c2[nH]1 [uric acid],Inhibition of the triggering step of IPC (in words),[1],inhibit the triggering step of IPC
same,Effect on cardioprotection by preconditioning (in words),[1],blocks cardioprotection by preconditioning
KQIEKKFK [Gap19],"Mitochondrial respiration / average oxygen flux, RCR or P/O ratio (in words)","[2]; Gap peptides 0.5, 5, 50 µM added in vitro to isolated mitochondria from control or IPC hearts, glutamate + malate",not able to detect significant change
same,"Oxygen flux, +Oligomycin","[2]; IPC hearts, peptide 0.5 µM",37.8 ± 7.4 nmol O2 (µmol IU CS Activity)^−1
same,"Oxygen flux, +ADP 50 µM","[2]; IPC hearts, peptide 0.5 µM",69.8 ± 28.0 nmol O2 (µmol IU CS Activity)^−1
same,"Oxygen flux, Glutamate + Maleate","[2]; IPC hearts, peptide 0.5 µM",15.2 ± 4.2 nmol O2 (µmol IU CS Activity)^−1
same,"Oxygen flux, OXPHOS Saturating +ADP 2.5 mM","[2]; IPC hearts, peptide 0.5 µM",92.5 ± 25.1 nmol O2 (µmol IU CS Activity)^−1
same,"Oxygen flux, State 4 (LEAK ATP)","[2]; IPC hearts, peptide 0.5 µM",21.2 ± 5.3 nmol O2 (µmol IU CS Activity)^−1
same,"Oxygen flux, +Oligomycin","[2]; IPC hearts, peptide 5 µM",39.0 ± 3.7 nmol O2 (µmol IU CS Activity)^−1
same,"Oxygen flux, +ADP 50 µM","[2]; IPC hearts, peptide 5 µM",71.4 ± 7.5 nmol O2 (µmol IU CS Activity)^−1
same,"Oxygen flux, Glutamate + Maleate","[2]; IPC hearts, peptide 5 µM",15.9 ± 1.7 nmol O2 (µmol IU CS Activity)^−1
same,"Oxygen flux, OXPHOS Saturating +ADP 2.5 mM","[2]; IPC hearts, peptide 5 µM",98.3 ± 10.5 nmol O2 (µmol IU CS Activity)^−1
same,"Oxygen flux, State 4 (LEAK ATP)","[2]; IPC hearts, peptide 5 µM",21.0 ± 2.6 nmol O2 (µmol IU CS Activity)^−1
same,"Oxygen flux, +Oligomycin","[2]; IPC hearts, peptide 50 µM",44.2 ± 7.5 nmol O2 (µmol IU CS Activity)^−1
same,"Oxygen flux, +ADP 50 µM","[2]; IPC hearts, peptide 50 µM",76.8 ± 21.6 nmol O2 (µmol IU CS Activity)^−1
same,"Oxygen flux, Glutamate + Maleate","[2]; IPC hearts, peptide 50 µM",19.6 ± 6.1 nmol O2 (µmol IU CS Activity)^−1
same,"Oxygen flux, OXPHOS Saturating +ADP 2.5 mM","[2]; IPC hearts, peptide 50 µM",116.2 ± 37.7 nmol O2 (µmol IU CS Activity)^−1
same,"Oxygen flux, State 4 (LEAK ATP)","[2]; IPC hearts, peptide 50 µM",24.0 ± 6.1 nmol O2 (µmol IU CS Activity)^−1
same,"Oxygen flux, +Oligomycin",[2]; [6],42.8 ± 4.5 nmol O2 (µmol IU CS Activity)^−1
same,"Oxygen flux, +ADP 50 µM",[2]; [6],68.9 ± 6.5 nmol O2 (µmol IU CS Activity)^−1
same,"Oxygen flux, Glutamate + Maleate",[2]; [6],16.6 ± 5.0 nmol O2 (µmol IU CS Activity)^−1
same,"Oxygen flux, OXPHOS Saturating +ADP 2.5 mM",[2]; [6],89.2 ± 35.6 nmol O2 (µmol IU CS Activity)^−1
same,"Oxygen flux, State 4 (LEAK ATP)",[2]; [6],23.8 ± 5.2 nmol O2 (µmol IU CS Activity)^−1
same,"Oxygen flux, +Oligomycin",[2]; [7],43.5 ± 2.6 nmol O2 (µmol IU CS Activity)^−1
same,"Oxygen flux, +ADP 50 µM",[2]; [7],75.1 ± 11.3 nmol O2 (µmol IU CS Activity)^−1
same,"Oxygen flux, Glutamate + Maleate",[2]; [7],16.6 ± 2.6 nmol O2 (µmol IU CS Activity)^−1
same,"Oxygen flux, OXPHOS Saturating +ADP 2.5 mM",[2]; [7],113.7 ± 12.9 nmol O2 (µmol IU CS Activity)^−1
same,"Oxygen flux, State 4 (LEAK ATP)",[2]; [7],22.1 ± 1.6 nmol O2 (µmol IU CS Activity)^−1
same,"Oxygen flux, +Oligomycin",[2]; [8],44.6 ± 5.1 nmol O2 (µmol IU CS Activity)^−1
same,"Oxygen flux, +ADP 50 µM",[2]; [8],78.9 ± 14.0 nmol O2 (µmol IU CS Activity)^−1
same,"Oxygen flux, Glutamate + Maleate",[2]; [8],18.2 ± 0.9 nmol O2 (µmol IU CS Activity)^−1
same,"Oxygen flux, OXPHOS Saturating +ADP 2.5 mM",[2]; [8],115.3 ± 8.7 nmol O2 (µmol IU CS Activity)^−1
same,"Oxygen flux, State 4 (LEAK ATP)",[2]; [8],24.8 ± 3.0 nmol O2 (µmol IU CS Activity)^−1
same,"Recovery of LVDP, Gap peptide combined with IPC (in words)",[3],significant increase in % recovery of LVDP (p < 0.05)
same,Cardioprotection / infarct size reduction when combined with IPC (in words),"[4]; Gap peptide prior to and during three IPC cycles, not at reperfusion",protection was maintained
same,"Infarct size in % of untreated control infarcts, Gap peptide combined with IPC","[4]; IPC 3 cycles of 5 min ischemia/reperfusion, Gap peptide 0.5 µM (Figure 1 legend: 0.05 µM) only during preconditioning cycles before 30 min global ischemia, 2 h reperfusion, TTC, mean ± SEM",60.9 ± 5.1%
same,Infarct size reduction (in words),"[4]; no IPC, Gap peptide immediately prior to ischemia and first 10 min of reperfusion",reducing infarct size to the same degree as ischemic preconditioning
same,Infarct size in % of untreated control infarcts,"[4]; no IPC, isolated rat heart, 37 °C, Gap peptide 0.5 µM (Figure 1 legend: 0.05 µM) prior to and after 30 min global ischemia, 2 h reperfusion, TTC, mean ± SEM",76.2 ± 2.7%
same,Coronary flow at baseline (in words),[5],significantly reduced with Gap19 compared to control (p < 0.05)
COc1ccc2[nH]cc(CCNC(C)=O)c2c1 [melatonin],Inhibition of the triggering step of IPC (in words),[1],inhibit the triggering step of IPC

# Reference: paper PMC9456187, “The Ambivalence of Connexin43 Gap Peptides in Cardioprotection of the Isolated Heart against Ischemic Injury” (International Journal of Molecular Sciences, 2022)
